Measurements from patent US20230226207A1, “Camptothecin Drug Having High-Stability Hydrophilic Connecting Unit And Conjugate Thereof” (SICHUAN BAILI PHARM CO., LTD, priority 2020, published 2023).

Legend:
[1] = tested on: N87 (human gastric cancer cells); test: In vitro proliferation inhibition of N87 tumor cells (MTS); format: cell-based; details: 120 h, 5 days
Method: (§1) 1) Experimental Materials • Cells: from the cell bank of the Chinese Academy of Sciences; • Tumor cell culture medium: Gibco; • FBS: BIOWEST;
(§2) 2) Preparation of Medium • Growth medium (with 10% FBS, Penicillin/streptomycin (100 U/mL); • Detection medium (with 1% FBS, Penicillin/streptomycin (100 U/mL);
(§3) Turn on the UV lamp in the biological safety cabinet 30 minutes in advance, and ventilate for 3 minutes. Put the growth medium, detection medium, D-PBS and pancreatin into a 37° C. constant temperature water bath to preheat, then disinfect the surface with alcohol and put it in a biological safety cabinet. Select cells with a confluence of ˜80% (logarithmic growth phase), put them in a biological safety cabinet, aspirate the old medium, rinse with D-PBS, aspirate and discard, digest with trypsin for 2 to 3 minutes, and then add to growth Stop trypsin in the medium, and centrifuge at 500×g for 5 min. Aspirate the centrifugal supernatant, mix well with 4 mL detection medium, take 100 uL for counting (take out 50 uL cell fluid, add 50 μL 0.4% Trypan Blue Stain and mix well, and count after mixing). Plate the plate according to the number of cells set before, and plate 80 uL/well in a 96-well plate. Only add 80 uL detection medium to wells E11, F11, and G11, and add 200 uL DPBS to the edge holes to seal the edges. […]
(§4) Take out the MTS reagent after the test sample is exposed for 5 days. […] After the reaction, the 96-well plate was taken out, the OD490 nm absorbance value was detected in the microplate reader, and the data was recorded, sorted, and stored.

[2] = tested on: SK-BR-3 (human breast adenocarcinoma cells); test: In vitro proliferation inhibition of SK-BR-3 tumor cells (MTS); format: cell-based; details: 120 h, SK-BR-3 cells, 5 days
Method: as §1, §2, §3, §4

SMILES | IC50 [1] | IC50 [2]
CC[C@@]1(O)C(=O)OCc2c1cc1n(c2=O)Cc2c-1nc1cc(F)c(C)c3c1c2[C@@H](NC(=O)CO)CC3 [d1] | 13.3 nM | 104 nM
CC[C@@]1(O)C(=O)OCc2c1cc1n(c2=O)Cc2c-1nc1cc(F)c(C)c3c1c2[C@@H](NC(=O)[C@H](C)O)CC3 [d3] | 8.03 nM | 183 nM
CC[C@@]1(O)C(=O)OCc2c1cc1n(c2=O)Cc2c-1nc1cc(F)c(C)c3c1c2[C@@H](NC(=O)[C@H](O)C(F)(F)F)CC3 [d6] | 2.15 nM | 239 nM
